Data as given in patent US11180462B2, “Microbiocidal oxadiazole derivatives” (SYNGENTA PARTICIPATIONS AG, priority 2015, dated 2021).

Assays:
[1] = system: Puccinia recondita f. Sp. Tritici; assay: Fungicidal activity against Puccinia recondita f. sp. tritici / wheat / leaf disc preventative (brown rust); type: in vivo; conditions: foliar, 200 ppm in the applied formulation, wheat leaf segments, preventative, compared to untreated control leaf disks, read-out: disease control
Procedure, shortened: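 Percent disease control relative to untreated check segments is scored once disease develops, 7 to 9 days after application. Wheat cv. Kanzler segments receive compound spray (200 ppm in formulation) one day before spore inoculation, then sit at 19° C. and 75% rh under 12 h light/12 h dark.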

[2] = system: Puccinia recondita f. Sp. Tritici; assay: Fungicidal activity against Puccinia recondita f. sp. tritici / wheat / leaf disc curative (brown rust); type: in vivo; conditions: foliar, 24 h, 200 ppm in the applied formulation, wheat leaf segments, curative (applied 1 day after inoculation), compared to untreated control leaf disks, read-out: disease control
Procedure, shortened: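 Wheat cv. Kanzler leaf segments on agar, inoculated with rust spore suspension, kept dark at 19° C and 75% RH; formulated compound sprayed 1 day post-inoculation. Incubated 19° C, 75% RH, 12 h light/12 h dark; percent disease control vs untreated scored 6 to 8 days after application.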

Phakopsora Pachyrhizi = assay: Fungicidal activity against Phakopsora pachyrhizi / soybean / leaf disc preventative (Asian soybean rust); type: in vivo; conditions: foliar, 200 ppm in the applied formulation, soybean leaf disks, compared to untreated control leaf disks, read-out: disease control
Procedure, shortened: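 Scored 12 to 14 days post-application as percent control relative to untreated check discs, rust spores were sprayed under the disc one day after compound treatment. Incubation: 20°C, 75% rh, first 24–36 h in darkness, then 12 h daily light; discs kept on water agar.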

[3] = system: Glomerella lagenarium (Colletotrichum lagenarium); assay: Fungicidal activity against Glomerella lagenarium (Colletotrichum lagenarium) liquid culture / cucumber / preventative (anthracnose); type: cell-based; conditions: Colletotrichum orbiculare; 20 ppm in the applied formulation; liquid culture (PDB), growth inhibition measured photometrically after 3 to 4 days; compared to untreated control; read-out: disease control
Procedure, shortened: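 Percent activity against the untreated check was derived from photometric growth measurements made 2 to 7 days after conidia in potato dextrose broth were combined with compound at 20 ppm. Cultures were kept dark at 24 °C and 96% humidity.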

COCC(=O)N(Cc1ccc(-c2noc(C(F)(F)F)n2)cc1)C1COC1 [Compound 1.613, 2-methoxy-N-(oxetan-3-yl)-N-[[4-[5-(trifluoromelhyl)-1,2,4-oxadiazol-3-yl]phenyl]methyl]-acetamide]
≥ 80%: pest or weed control at 200 ppm [1] | pest or weed control at 200 ppm [2] | pest or weed control at 200 ppm (Phakopsora Pachyrhizi) | inhibition of growth at 20 ppm [3]

CN(Cc1ccc(-c2noc(C(F)(F)F)n2)cc1)C(=O)C1OCCO1 [Compound 1.531, N-methyl-N-[[4-[5-(trifluoromethyl)-1,2,4-oxadiazol-3-yl]phenyl]methyl]-1,3-dioxolane-2-carboxamide]
≥ 80%: pest or weed control at 200 ppm [1] | pest or weed control at 200 ppm [2] | pest or weed control at 200 ppm (Phakopsora Pachyrhizi) | inhibition of growth at 20 ppm [3]

COC(C)C(=O)N(Cc1ccc(-c2noc(C(F)(F)F)n2)cc1)CC1CC1 (centres unmarked) [Compound 1.245, N-(cyclopropylmethyl)-2-methoxy-N-[[4-[5-(trifluoromethyl)-1,2,4-oxadiazol-3-yl]phenyl]methyl]-propanamide]
≥ 80%: pest or weed control at 200 ppm [1] | pest or weed control at 200 ppm [2] | pest or weed control at 200 ppm (Phakopsora Pachyrhizi) | inhibition of growth at 20 ppm [3]

C#CCN(Cc1ccc(-c2noc(C(F)(F)F)n2)cc1)C(=O)CCC=C [Compound 1.159, N-prop-2-ynyl-N-[[4-[5-(trifluoromethyl)-1,2,4-oxadiazol-3-yl]phenyl]methyl]-pent-4-enamide]
≥ 80%: pest or weed control at 200 ppm [1] | pest or weed control at 200 ppm [2] | pest or weed control at 200 ppm (Phakopsora Pachyrhizi) | inhibition of growth at 20 ppm [3]

CC(C)N(Cc1ccc(-c2noc(C(F)(F)F)n2)cc1)C(=O)C1CC1(F)F (centres unmarked) [Compound 1.671, 2,2-difluoro-N-isopropyl-N-[[4-[5-(trifluoromethyl)-1,2,4-oxadiazol-3-yl]phenyl]methyl]-cyclopropane-carboxamide]
≥ 80%: pest or weed control at 200 ppm [1] | pest or weed control at 200 ppm [2] | pest or weed control at 200 ppm (Phakopsora Pachyrhizi) | inhibition of growth at 20 ppm [3]

CN(Cc1ccc(-c2noc(C(F)(F)F)n2)cc1)C(=O)C1CC1F (centres unmarked) [Compound 1.529, 2-fluoro-N-methyl-N-[[4-[5-(trifluoromethyl)-1,2,4-oxadiazol-3-yl]phenyl]methyl]-cyclopropane-carboxamide]
≥ 80%: pest or weed control at 200 ppm [1] | pest or weed control at 200 ppm [2] | pest or weed control at 200 ppm (Phakopsora Pachyrhizi) | inhibition of growth at 20 ppm [3]

CCC(COC)C(=O)N(Cc1ccc(-c2noc(C(F)(F)F)n2)cc1)C1COC1 (centres unmarked) [Compound 1.745, 2-(methoxymethyl)-N-(oxetan-3-yl)-N-[[4-[5-(trifluoromethyl)-1,2,4-oxadiazol-3-yl]phenyl]methyl]-butanamide]
≥ 80%: pest or weed control at 200 ppm [1] | pest or weed control at 200 ppm [2] | pest or weed control at 200 ppm (Phakopsora Pachyrhizi) | inhibition of growth at 20 ppm [3]

CCON(Cc1ccc(-c2noc(C(F)(F)F)n2)cc1)C(=O)C(C)CC (centres unmarked) [Compound 1.622, N-ethoxy-2-methyl-N-[[4-[5-(trifluoromethyl)-1,2,4-oxadiazol-3-yl]phenyl]methyl]-butanamide]
≥ 80%: pest or weed control at 200 ppm [1] | pest or weed control at 200 ppm [2] | pest or weed control at 200 ppm (Phakopsora Pachyrhizi) | inhibition of growth at 20 ppm [3]

CON(Cc1ccc(-c2noc(C(F)(F)F)n2)cc1)C(=O)C1CC1C (centres unmarked) [Compound 1.40, N-methoxy-2-methyl-N-[[4-[5-(trifluoromethyl)-1,2,4-oxadiazol-3-yl]phenyl]methyl]-cyclopropane-carboxamide]
≥ 80%: pest or weed control at 200 ppm [1] | pest or weed control at 200 ppm [2] | pest or weed control at 200 ppm (Phakopsora Pachyrhizi) | inhibition of growth at 20 ppm [3]

CON(C(=O)C1CCCO1)C(C)c1ccc(-c2noc(C(F)(F)F)n2)cc1 (centres unmarked) [Compound 1.273, N-methoxy-N-[1-[4-[5-(trifluoromethyl)-1,2,4-oxadiazol-3-yl]phenyl]ethyl]-tetrahydrofuran-2-carboxamide]
≥ 80%: pest or weed control at 200 ppm [1] | pest or weed control at 200 ppm [2] | pest or weed control at 200 ppm (Phakopsora Pachyrhizi) | inhibition of growth at 20 ppm [3]

CCON(Cc1ccc(-c2noc(C(F)(F)F)n2)cc1)C(=O)C1CCOC1 (centres unmarked) [Compound 1.617, N-ethoxy-N-[[4-[5-(trifluoromethyl)-1,2,4-oxadiazol-3-yl]phenyl]methyl]-tetrahydrofuran-3-carboxamide]
≥ 80%: pest or weed control at 200 ppm [1] | pest or weed control at 200 ppm [2] | pest or weed control at 200 ppm (Phakopsora Pachyrhizi) | inhibition of growth at 20 ppm [3]

COCCN(Cc1ccc(-c2noc(C(F)(F)F)n2)cc1)C(=O)C1CCC1 [Compound 1.337, N-(2-methoxyethyl)-N-[[4-[5-(trifluoromethyl)-1,2,4-oxadiazol-3-yl]phenyl]methyl]-cyclobutane-carboxamide]
≥ 80%: pest or weed control at 200 ppm [1] | pest or weed control at 200 ppm [2] | pest or weed control at 200 ppm (Phakopsora Pachyrhizi) | inhibition of growth at 20 ppm [3]

C=CCN(Cc1ccc(-c2noc(C(F)(F)F)n2)cc1)C(=O)C(C)CC (centres unmarked) [Compound 1.486, N-allyl-2-methyl-N-[[4-[5-(trifluoromethyl)-1,2,4-oxadiazol-3-yl]phenyl]methyl]-butanamide]
≥ 80%: pest or weed control at 200 ppm [1] | pest or weed control at 200 ppm [2] | pest or weed control at 200 ppm (Phakopsora Pachyrhizi) | inhibition of growth at 20 ppm [3]

COCCC(=O)N(C)Cc1ccc(-c2noc(C(F)(F)F)n2)cc1 [Compound 1.516, 3-methoxy-N-methyl-N-[[4-[5-(trifluoromethyl)-1,2,4-oxadiazol-3-yl]phenyl]methyl]-propanamide]
≥ 80%: pest or weed control at 200 ppm [1] | pest or weed control at 200 ppm [2] | pest or weed control at 200 ppm (Phakopsora Pachyrhizi) | inhibition of growth at 20 ppm [3]

O=C(CC1CC1(F)F)N(Cc1ccc(-c2noc(C(F)(F)F)n2)cc1)C1CC1 (centres unmarked) [Compound 1.138, N-cyclopropyl-2-(2,2-difluorocyclopropyl)-N-[[4-[5-(trifluoromethyl)-1,2,4-oxadiazol-3-yl]phenyl]methyl]-acetamide]
≥ 80%: pest or weed control at 200 ppm [1] | pest or weed control at 200 ppm [2] | pest or weed control at 200 ppm (Phakopsora Pachyrhizi) | inhibition of growth at 20 ppm [3]

CC(C)N(Cc1ccc(-c2noc(C(F)(F)F)n2)cc1)C(=O)C1CC1 [Compound 1.599, N-isopropyl-N-[[4-[5-(trifluoromethyl)-1,2,4-oxadiazol-3-yl]phenyl]methyl]-cyclopropane-carboxamide]
≥ 80%: pest or weed control at 200 ppm [1] | pest or weed control at 200 ppm [2] | pest or weed control at 200 ppm (Phakopsora Pachyrhizi) | inhibition of growth at 20 ppm [3]

CCCN(Cc1ccc(-c2noc(C(F)(F)F)n2)cc1)C(=O)C(C)C [Compound 1.651, 2-methyl-N-propyl-N-[[4-[5-(trifluoromethyl)-1,2,4-oxadiazol-3-yl]phenyl]methyl]-propanamide]
≥ 80%: pest or weed control at 200 ppm [1] | pest or weed control at 200 ppm [2] | pest or weed control at 200 ppm (Phakopsora Pachyrhizi) | inhibition of growth at 20 ppm [3]

CON(Cc1c(F)cc(-c2noc(C(F)(F)F)n2)cc1F)C(=O)C1CC1 [Compound 1.596, N-[[2,6-difluoro-4-[5-(trifluoromethyl)-1,2,4-oxadiazol-3-yl]phenyl]methyl]-N-methoxy-cyclopropane-carboxamide]
≥ 80%: pest or weed control at 200 ppm [1] | pest or weed control at 200 ppm [2] | pest or weed control at 200 ppm (Phakopsora Pachyrhizi) | inhibition of growth at 20 ppm [3]

CCON(Cc1ccc(-c2noc(C(F)(F)F)n2)cc1)C(C)=O [Compound 1.631, N-ethoxy-N-[[4-[5-(trifluoromethyl)-1,2,4-oxadiazol-3-yl]phenyl]methyl]-acetamide]
≥ 80%: pest or weed control at 200 ppm [1] | pest or weed control at 200 ppm [2] | pest or weed control at 200 ppm (Phakopsora Pachyrhizi) | inhibition of growth at 20 ppm [3]

CON(C)C(=O)N(Cc1ccc(-c2noc(C(F)(F)F)n2)cc1)C1CC1 [Compound 3.33, 1-cyclopropyl-3-methoxy-3-methyl-1-[[4-[5-(trifluoromethyl)-1,2,4-oxadiazol-3-yl]phenyl]methyl]urea]
≥ 80%: pest or weed control at 200 ppm [1] | pest or weed control at 200 ppm [2] | pest or weed control at 200 ppm (Phakopsora Pachyrhizi) | inhibition of growth at 20 ppm [3]

C#CCN(Cc1ccc(-c2noc(C(F)(F)F)n2)cc1)C(=O)C(C)CC (centres unmarked) [Compound 1.191, 2-methyl-N-prop-2-ynyl-N-[[4-[5-(trifluoromethyl)-1,2,4-oxadiazol-3-yl]phenyl]methy]-butanamide]
≥ 80%: pest or weed control at 200 ppm [1] | pest or weed control at 200 ppm [2] | pest or weed control at 200 ppm (Phakopsora Pachyrhizi) | inhibition of growth at 20 ppm [3]

CCN(Cc1ccc(-c2noc(C(F)(F)F)n2)cc1)C(=O)COC [Compound 1.499, N-ethyl-2-methoxy-N-[[4-[5-(trifluoromethyl)-1,2,4-oxadiazol-3-yl]phenyl]methyl]-acetamide]
≥ 80%: pest or weed control at 200 ppm [1] | pest or weed control at 200 ppm [2] | pest or weed control at 200 ppm (Phakopsora Pachyrhizi) | inhibition of growth at 20 ppm [3]

CC1(C(=O)N(Cc2ccc(-c3noc(C(F)(F)F)n3)cc2)CC(F)(F)F)CC1 [Compound 1.696, 1-methyl-N-(2,2,2-trifluoroethyl)-N-[[4-[5-(trifluoromethyl)-1,2,4-oxadiazol-3-yl]phenyl]methyl]-cyclopropane-carboxamide]
≥ 80%: pest or weed control at 200 ppm [1] | pest or weed control at 200 ppm [2] | pest or weed control at 200 ppm (Phakopsora Pachyrhizi) | inhibition of growth at 20 ppm [3]
